Data from patent US20260324636A1, “COMPOSITION FOR PROVIDING PLANT WITH STRESS RESISTANCE” (KIRIN HOLDINGS KABUSHIKI KAISHA, priority 2022, published 2026).

What was measured:
[1] = test system: hop; experiment: Oxidation stress resistance against methyl viologen in hop leaves (leaf chlorosis, chlorophyll content), Example 10; assay type: in vivo, hop (variety: Hersbrucker); conditions: 1 mM, 5 μM methyl viologen, 22° C. 4 days
Method: A hop strain (the variety: Hersbrucker) was used as an experimental material. Hop seedlings grown in the field of Kirin Brewery Company, Limited in Iwate, Japan were used.
A Murashige and Skoog Plant Salt Mixture 2.2 g and glucose 20 g (FUJIFILM Wako) were dissolved in 1 l of pure water, and a pH was adjusted to 5.8. Thereafter, agar (8 g (Ina Food Industry Co., Ltd.) was dissolved and autoclaved (121° C., 15 minutes).
A Murashige and Skoog Plant Salt Mixture 2.2 g and glucose 20 g were dissolved in 1 l of pure water, a pH was adjusted to 5.8, and the resultant was autoclaved (121° C., 20 minutes).
Tissue-cultured seedlings required for evaluation of oxidation stress response of a hop were prepared in a laboratory. […]
Leaf chlorosis is observed in plants upon oxidation stress exposure. Thus, an extent of chlorosis was evaluated by measuring the content of the green pigment chlorophyll in leaves.
Plants in a well (3 leaves) was transferred to a 1.5-ml tube containing 1 ml of N,N-dimethylformamide and incubated at 4° C. in the dark for 1 day to extract the chlorophyll. The absorbance of the extract was measured at 647 nm and 664 nm, respectively, to calculate the chlorophyll content on a leaf fresh weight basis. The chlorophyll content was calculated in the same manner as in Example 1.

[2] = test system: HAC1; experiment: HAC1 gene expression by real-time PCR, Example 15; assay type: in vivo; conditions: Arabidopsis thaliana; 0.1 mM in medium, 2 hours after application, 22° C.; read-out: HAC1 expression level, increase vs group not subjected to the treatment
Method: The materials as used in Example 14 were used.
A liquid medium containing a ½ Murashige and Skoog Plant Salt Mixture (Nacalai) and 1 (w/v) % sucrose (FUJIFILM Wako) was used as a growth medium.
Arabidopsis thaliana seeds were sterilized with the use of a Kitchen Haiter® liquid (Kao Corporation) diluted to one-half concentration with distilled water for 3 minutes, washed 3 times with sterile distilled water, and then incubated at 4° C. overnight. The growth medium was dispensed at 1 ml/well on a 12-well microplate (IWAKI), 5 grains of the seeds were inoculated in each well, and the plate was transferred to the incubator (TOMY) to initiate growing. The incubator was maintained at a temperature of 22° C. for a daily cycle of 16 hours light and 8 hours darkness.
N-acetylglutamic acid was applied to Arabidopsis thaliana 7 days after inoculation to the final concentration of 0.1 mM in the medium, followed by incubation for 2 hours or 6 hours. The incubator was maintained at a temperature of 22° C. for a daily cycle of 16 hours light and 8 hours darkness. After incubation, the samples were frozen with liquid nitrogen, and RNA was extracted using the RNeasy Plant Mini Kit […]. […]
Thereafter, the relative expression levels of the target genes upon N-acetylglutamic acid treatment were calculated by the ΔΔCt method using the Cp values obtained by real-time PCR.

[3] = test system: H1HSFA2; experiment: H1HSFA2 gene expression by real-time PCR, Example 7; assay type: in vivo, hop; conditions: 1 mM in medium, 20° C. for 2 hours, leaves; read-out: H1HSFA2 expression level, increase vs control
Description: In order to design primers for the target genes necessary for gene expression analysis by real-time PCR, homologs of Arabidopsis thaliana high-temperature-responsive genes in hop were searched for. The amino acid sequences of Arabidopsis thaliana HSFA2 (AGI code: AT2G26150) and HSP17.6C (AGI code: AT1G53540) were obtained from TAIR (https://www.arabidopsis.org/), and the nucleotide sequences of the gene homologs were obtained using Hopbase (https://hopbase.cgrb.oregonstate.edu/). […] As the reference gene, the nucleotide sequence of the homolog of Arabidopsis thaliana EF1α (AGI code: AT1G18070) was obtained. The hop homolog genes were designated as H1HSFA2, H1HSP17.6C, and HIEF1α, respectively.
The materials as used in Example 4 were used.
The methods as employed in Example 4 were employed.
The leaves in the first and the second nodes from the apical buds of the tissue-cultured seedlings were sampled 1.5 months after the initiation of subculture and inoculated into a liquid medium consisting of a ½ Murashige and Skoog Plant Salt Mixture and 2 (w/v) % glucose. Specifically, a liquid medium was dispensed at 5 ml/well to a 6-well microplate (IWAKI), and 5 hop leaves were mounted thereon. […]
Thereafter, the relative expression level of the target gene upon N-acetylglutamic acid treatment was calculated by the ΔΔCt method.

CC(=O)N[C@@H](CCC(=O)O)C(=O)O [N-acetylglutamic acid]
leaf chlorosis in MV-treated group, compared with control group [1]: more suppressed
decrease in the chlorophyll content in the MV-treated groups, compared with the control group ([1]; leaf fresh weight basis): suppressed
fold induction at 100 µM [2]: 1.2
fold induction at 1000 µM [3]: 1.7
